Legend:
female BALB/C mice = experiment: Mouse in vivo imaging of Fluc-mRNA LNP formulations; parameters: average radiation intensity (mRNA expression): unit not given here; details: for average radiation intensity (mRNA expression): 10 μg Fluc-mRNA LNP intramuscularly
Procedure: The LNP formulation containing 10 μg Fluc-mRNA (prepared according to Example 4) was injected intramuscularly into female BALB/C mice aged 4 to 6 weeks and weighing 17 to 19 g, and the mice were intraperitoneally injected with fluorescent imaging substrates at specific time points (6 h, 24 h, 48 h and 7 d) after administration. The mice moved freely for 5 minutes, and then the average radiation intensity (corresponding to the fluorescence expression intensity) of the protein expressed by the mRNA carried by the LNP in the mice was detected by IVIS Spectrum small animal in vivo imager. The test results are shown in Tables 14 to 17 and FIGS. 12 to 14.

[1] = Particle size and polydispersity index (PDI) of nanolipid particles, dynamic light scattering; type: physicochemical; details: LNP formulation prepared from the named cationic lipid, 25° C
Procedure: The particle size and polydispersity index (PDI) were determined by dynamic light scattering method using a Malvern laser particle size analyzer. 10 μL of liposome solution was diluted to 1 mL with RNase-free deionized water and added to a sample pool. Each sample was measured three times. The measurement conditions were: 90° scattering angle, 25° C.

293T cells [2] = experiment: Fluorescence detection of Fluc-mRNA (cell transfection efficiency of LNP formulations); type: cell-based; details: for Relative light unit (RLU): LNP containing 0.3 μg Fluc-mRNA, 24 hours; for Multiples of values that equivalent to YK-201: RLU of YK-201 / RLU of the named lipid; for Multiples of values that equivalent to YK-202: RLU of YK-202 / RLU of the named lipid
Procedure: (§1) Cell recovery and passaging: 293T cells were recovered and cultured in culture dishes to the required cell number.
(§2) Plating: The cells in the culture dish were digested, counted, plated in a 96-well plate at 10,000 cells per well, or in a 12-well plate at 150,000 cells per well, and cultured overnight until the cells adhered to the wall.
(§3) Cell recovery and passage: The method was the same as in Example 3.
(§4) Plating: The method was the same as Example 3.
The LNP formulation containing 0.3 μg Fluc-mRNA (prepared according to Example 4, the LNP formulation carrier components were cationic lipids, neutral lipids, structured lipids and polymer-conjugated lipids at a molar ratio of 49:10:39.5:1.5, and the cationic lipids were cationic lipids listed in Table 1) was added to the cell culture medium of a 96-well plate, and cultured for 24 hours. After that, the corresponding reagents were added according to the instructions of the Gaussia Luciferase Assay Kit, and the fluorescence expression intensity of each well was detected by the IVIS fluorescence detection system. This experiment verified the transfection efficiency of the LNP formulation in the cell, and the specific detection results are shown in Tables 6-9.

293T cells [3] = experiment: Cell survival rate assay (CCK-8); type: cell-based; details: for Cell survival rate: LNP containing 1.5 μg Fluc-mRNA, 24 hours, CCK-8
Procedure: as §1, §2, §3, §4
The LNP formulations containing 1.5 μg Fluc-mRNA (prepared according to Example 4, the LNP formulation carrier components are cationic lipids, neutral lipids, structured lipids and polymer-conjugated lipids at a molar ratio of 49:10:39.5:1.5, wherein the cationic lipids are the cationic lipids listed in Table 1) and the Lipofectamine 3000 formulation were added to the cell culture medium of the 96-well plate, and the culture was continued for 24 hours. Then, 10 μL of CCK-8 solution was added to each well, and the culture plate was incubated in the incubator for 1 hour, and the absorbance at 450 nm was measured by a microplate reader.

[4] = Encapsulation rate, drug loading concentration and total RNA concentration detection (RiboGreen); type: physicochemical; details: for Drug loading concentration / Encapsulation rate / Total RNA concentration: LNP formulation of the named lipid
From the text: Encapsulation rate is a key quality attribute of liposomes. It refers to the percentage of drug content encapsulated in the lipid bilayer to the total amount of drug added, which can reflect the degree of drug encapsulation in liposomes. The Chinese Pharmacopoeia stipulates that the encapsulation rate should usually not be less than 80%.
The drug loading capacity is the ratio of the amount of drug in the liposome to the total amount of drug and carrier in the liposome. The drug loading capacity directly affects the clinical application dose of the drug, so the larger the drug loading capacity, the more it can meet clinical needs. The drug loading concentration is proportional to the drug loading capacity, and the relative proportion of the drug loading concentration can represent the relative proportion of the drug loading capacity. The relative proportion of the total RNA concentration can represent the relative proportion of the amount of mRNA carried by the LNP formulation.
1×TE buffer, 0.1% Triton X-100 buffer, and RiboGreen reagent (1:200) and mRNA standard stock solution were prepared.
An appropriate amount of sample was taken and added to an appropriate amount of 1×TE buffer, which was diluted to a solution containing about 2.8 μg of the test sample per 1 mL. Then the sample was added to a 96-well plate, where 50 μL of the diluted test sample or mRNA standard stock solution was added to each well, and then added with 1×TE buffer and 0.1% Triton X-100 buffer. The samples were incubated at 37° C. for 10 minutes, and 100 μL of RiboGreen reagent (1:200) was added to each well of the 96-well plate. The plate was centrifuged, and read using an ELISA reader, and the data was processed.

SMILES: CCCCCCCCCCCOC(=O)CCCCCN(CCO)CCCCCCCC(=O)OC(CCCCCCCC)CCCCCCCC [SM-102, reference compound]
- average radiation intensity (mRNA expression) (female BALB/C mice; 6 h): 678870
- average radiation intensity (mRNA expression) (female BALB/C mice; 24 h): 115800
- average radiation intensity (mRNA expression) (female BALB/C mice; 48 h): 30560
- average radiation intensity (mRNA expression) (female BALB/C mice; 7 d): 5903
- PDI [1]: 19.2%
- Particle size [1]: 145 nm
- Relative light unit (RLU) (293T cells [2]): 1665874 RLU
- Multiples of values that equivalent to YK-201 (293T cells [2]): 17.10
- Multiples of values that equivalent to YK-202 (293T cells [2]): 17.98
- Ratio relative to SM-102 (293T cells [2]; RLU of the named lipid / RLU of SM-102, times that of SM-102): 1.00
- Cell survival rate (293T cells [3]): 68.55%
- Drug loading concentration [4]: 25.44 µg/mL
- Encapsulation rate [4]: 62.3%
- Total RNA concentration [4]: 35.27 µg/mL

SMILES: CCCCCCCCCCOC(=O)CCCN(CCCCCC(=O)OCC(CCCCCCCC)CCCCCCCC)CCN(C)CCO [YK-207, 2-octyldecyl-6-(2-((2-(2-hydroxyethyl(methyl)amino)ethyl)(4-oxo-4-((decyloxy)butyl)amino) hexanoate]
- average radiation intensity (mRNA expression) (female BALB/C mice; 6 h): 1974100
- average radiation intensity (mRNA expression) (female BALB/C mice; 24 h): 1523040
- average radiation intensity (mRNA expression) (female BALB/C mice; 48 h): 525800
- average radiation intensity (mRNA expression) (female BALB/C mice; 7 d): 22896
- mRNA expression level in mice can reach, times that of ALC-0315 (female BALB/C mice; time point not stated): 13 times
- mRNA expression level in mice can reach, times that of HHMA (female BALB/C mice; time point not stated): 16 times
- mRNA expression level in mice can reach, times that of SM-102 (female BALB/C mice; time point not stated): 16 times
- mRNA expression level in mice can reach, times that of compound 21 (female BALB/C mice; time point not stated): 16 times
- mRNA expression level in mice can reach, times that of compound 23 (female BALB/C mice; time point not stated): 16 times
- PDI [1]: 18.9%
- Particle size [1]: 192 nm
- RLU / cell transfection efficiency, times that of ALC-0315 (293T cells [2]; Fluc-mRNA LNP): 9 times
- RLU / cell transfection efficiency, times that of HHMA (293T cells [2]; Fluc-mRNA LNP): 10 times
- RLU / cell transfection efficiency, times that of Lipofectamine 3000 (293T cells [2]; Fluc-mRNA LNP): 17 times
- RLU / cell transfection efficiency, times that of YK-009 (293T cells [2]; Fluc-mRNA LNP): 4 times
- RLU / cell transfection efficiency, times that of compound 21 (293T cells [2]; Fluc-mRNA LNP): 14 times
- RLU / cell transfection efficiency, times that of compound 23 (293T cells [2]; Fluc-mRNA LNP): 15 times
- cell transfection efficiency, times that of YK-221 (293T cells [2]; Fluc-mRNA LNP): 960.71 times
- fluorescence absorption value / cell transfection efficiency, times that of YK-220 (293T cells [2]; Fluc-mRNA LNP): 124.13 times
- Relative light unit (RLU) (293T cells [2]): 20878758 RLU
- Multiples of values that equivalent to YK-201 (293T cells [2]): 1.36
- Multiples of values that equivalent to YK-202 (293T cells [2]): 1.43
- Multiples of values that equivalent to YK-209 (293T cells [2]; RLU of YK-209 / RLU of the named lipid): 1.29
- Cell survival rate (293T cells [3]): 73.88%
- cell survival rate higher than that of ALC-0315 (293T cells [3]; difference of rates): 23.92%
- cell survival rate higher than that of HHMA (293T cells [3]; difference of rates): 8.32%
- cell survival rate higher than that of Lipofectamine 3000 (293T cells [3]; difference of rates): 50.83%
- cell survival rate higher than that of SM-102 (293T cells [3]; difference of rates): 5.33%
- cell survival rate higher than that of compound 21 (293T cells [3]; difference of rates): 4.86%
- cell survival rate higher than that of compound 23 (293T cells [3]; difference of rates): 3.78%
- drug loading concentration, times that of ALC-0315 [4]: 1.52 times
- drug loading concentration, times that of HHMA [4]: 1.29 times
- drug loading concentration, times that of SM-102 [4]: 1.56 times
- drug loading concentration, times that of YK-009 [4]: 1.47 times
- drug loading concentration, times that of compound 21 [4]: 1.75 times
- drug loading concentration, times that of compound 23 [4]: 1.91 times
- total RNA concentration, times that of ALC-0315 [4]: 1.18 times
- total RNA concentration, times that of HHMA [4]: 1.15 times
- total RNA concentration, times that of SM-102 [4]: 1.24 times
- total RNA concentration, times that of YK-009 [4]: 1.13 times
- total RNA concentration, times that of compound 21 [4]: 1.42 times
- total RNA concentration, times that of compound 23 [4]: 1.34 times
- Drug loading concentration [4]: 39.60 µg/mL
- Encapsulation rate [4]: 90.8%
- Total RNA concentration [4]: 43.63 µg/mL
- encapsulation rate higher than that of ALC-0315 ([4]; difference of rates): 28.00%
- encapsulation rate higher than that of HHMA ([4]; difference of rates): 30.30%
- encapsulation rate higher than that of SM-102 ([4]; difference of rates): 28.50%
- encapsulation rate higher than that of YK-009 ([4]; difference of rates): 27.80%
- encapsulation rate higher than that of compound 21 ([4]; difference of rates): 33.00%
- encapsulation rate higher than that of compound 23 ([4]; difference of rates): 35.60%

— patent US20260007601A1, “IONIZABLE CATIONIC LIPID COMPOUND AND COMPOSITION FOR DELIVERING NUCLEIC ACID AND USE THEREOF” (BEIJING YOUCAREKECHUANG PHARMACEUTICAL TECHNOLOGY CO., LTD., priority 2023, published 2026)
